Source: ChEMBL document CHEMBL1146065, “Structure-based optimization of azole antifungal agents by CoMFA, CoMSIA, and molecular docking” (2006)
In brackets after ≈: the same amount, converted by molar mass.

Experiments:
Format in all cases: functional
Candida albicans = test: Antifungal activity against Candida albicans
Candida parapsilosis = test: Antifungal activity against Candida parapsilosis; conditions: Lodderomyces parapsilosis
Candida tropicalis = test: Antifungal activity against Candida tropicalis
Cryptococcus neoformans = test: Antifungal activity against Cryptococcus neoformans
Aspergillus fumigatus = test: Antifungal activity against Aspergillus fumigatus
Fonsecaea pedrosoi = test: Antifungal activity against Fonsecaea pedrosoi
Trichophyton rubrum = test: Antifungal activity against Trichophyton rubrum
Microsporum = test: Antifungal activity against Microsporum lanosum
Sporothrix schenckii = test: Antifungal activity against Sporothrix schenckii

| Compound | MIC80 (Candida albicans) [µg/mL] | MIC80 (Candida parapsilosis) [µg/mL] | MIC80 (Candida tropicalis) [µg/mL] | MIC80 (Cryptococcus neoformans) [µg/mL] | MIC80 (Aspergillus fumigatus) [µg/mL] | MIC80 (Fonsecaea pedrosoi) [µg/mL] | MIC80 (Trichophyton rubrum) [µg/mL] | MIC80 (Microsporum) [µg/mL] | MIC80 (Sporothrix schenckii) [µg/mL] |
| --- | --- | --- | --- | --- | --- | --- | --- | --- | --- |
| CN(Cc1ccc(NC(=O)c2ccc(Br)cc2)cc1)CC(O)(Cn1cncn1)c1ccc(F)cc1F (configuration not stated) | 0.008 (≈ 0.0144 µM) | 0.016 (≈ 0.0288 µM) | 0.016 (≈ 0.0288 µM) | 0.125 (≈ 0.225 µM) | 16 (≈ 28.8 µM) | ≤ 0.125 | ≤ 0.125 | 0.25 (≈ 0.449 µM) |  |
| CN(Cc1ccc(NC(=O)c2ccc(Cl)cc2Cl)cc1)CC(O)(Cn1cncn1)c1ccc(F)cc1F (configuration not stated) | 0.016 (≈ 0.0293 µM) | 0.125 (≈ 0.229 µM) | 0.5 (≈ 0.915 µM) | 0.0625 (≈ 0.114 µM) | 16 (≈ 29.3 µM) | ≤ 0.125 | 0.5 (≈ 0.915 µM) | 0.5 (≈ 0.915 µM) |  |
| CN(Cc1ccc(NC(=O)c2ccc([N+](=O)[O-])cc2)cc1)CC(O)(Cn1cncn1)c1ccc(F)cc1F (configuration not stated) | 0.0625 (≈ 0.12 µM) | 0.125 (≈ 0.239 µM) | 0.5 (≈ 0.957 µM) | 0.5 (≈ 0.957 µM) | > 64 | 0.25 (≈ 0.478 µM) | 0.5 (≈ 0.957 µM) | 4 (≈ 7.66 µM) |  |
| CN(Cc1ccc(NC(=O)c2cccc([N+](=O)[O-])c2)cc1)CC(O)(Cn1cncn1)c1ccc(F)cc1F (configuration not stated) | 16 (≈ 30.6 µM) | 16 (≈ 30.6 µM) | 4 (≈ 7.66 µM) | 0.5 (≈ 0.957 µM) | 64 (≈ 122 µM) | 0.5 (≈ 0.957 µM) | 0.25 (≈ 0.478 µM) | 8 (≈ 15.3 µM) |  |
| CN(Cc1ccc(-n2cnn(CC(=O)c3ccc(C(C)(C)C)cc3)c2=O)cc1)CC(O)(Cn1cncn1)c1ccc(F)cc1F (configuration not stated) | 0.0625 (≈ 0.102 µM) | 2 (≈ 3.25 µM) | 0.5 (≈ 0.812 µM) | 32 (≈ 52 µM) | 64 (≈ 104 µM) | 2 (≈ 3.25 µM) | 64 (≈ 104 µM) |  | 64 (≈ 104 µM) |
| CN(Cc1ccc(-n2cnn(CC(=O)c3ccc(Cl)cc3Cl)c2=O)cc1)CC(O)(Cn1cncn1)c1ccc(F)cc1F (configuration not stated) | 0.031 (≈ 0.0493 µM) | 1 (≈ 1.59 µM) | 0.125 (≈ 0.199 µM) | 16 (≈ 25.5 µM) | 64 (≈ 102 µM) | 4 (≈ 6.36 µM) | 32 (≈ 50.9 µM) |  | 64 (≈ 102 µM) |
| CN(Cc1ccccc1[N+](=O)[O-])CC(O)(Cn1cncn1)c1ccc(F)cc1F (configuration not stated) | 2 (≈ 4.96 µM) | 2 (≈ 4.96 µM) | 0.25 (≈ 0.62 µM) | 0.25 (≈ 0.62 µM) | 4 (≈ 9.92 µM) | 1 (≈ 2.48 µM) | 0.25 (≈ 0.62 µM) |  | 64 (≈ 159 µM) |
| CN(Cc1ccc(-n2cnn(CC(=O)c3ccc(Cl)cc3)c2=O)cc1)CC(O)(Cn1cncn1)c1ccc(F)cc1F (configuration not stated) | 0.004 (≈ 0.00673 µM) | 0.03 (≈ 0.0505 µM) | 0.0625 (≈ 0.105 µM) | 2 (≈ 3.37 µM) | 64 (≈ 108 µM) | 0.25 (≈ 0.421 µM) | 4 (≈ 6.73 µM) |  | 64 (≈ 108 µM) |
| CCc1ccc(Cn2ncn(-c3ccc(CN(C)CC(O)(Cn4cncn4)c4ccc(F)cc4F)cc3)c2=O)cc1 (configuration not stated) | 0.008 (≈ 0.0143 µM) | 0.008 (≈ 0.0143 µM) | 0.25 (≈ 0.447 µM) | 0.5 (≈ 0.893 µM) | 8 (≈ 14.3 µM) | 0.25 (≈ 0.447 µM) | 0.5 (≈ 0.893 µM) |  | 64 (≈ 114 µM) |
| CN(Cc1ccc(-n2cnn(Cc3ccc(F)cc3)c2=O)cc1)CC(O)(Cn1cncn1)c1ccc(F)cc1F (configuration not stated) | 0.004 (≈ 0.00728 µM) | 4 (≈ 7.28 µM) | 1 (≈ 1.82 µM) | 4 (≈ 7.28 µM) | 64 (≈ 116 µM) | 1 (≈ 1.82 µM) | 8 (≈ 14.6 µM) |  | 32 (≈ 58.2 µM) |
| CN(Cc1ccc(-n2cnn(Cc3ccccc3)c2=O)cc1)CC(O)(Cn1cncn1)c1ccc(F)cc1F (configuration not stated) | 0.031 (≈ 0.0583 µM) | 0.016 (≈ 0.0301 µM) | 1 (≈ 1.88 µM) | 64 (≈ 120 µM) | 64 (≈ 120 µM) | 0.5 (≈ 0.941 µM) | 16 (≈ 30.1 µM) |  | 64 (≈ 120 µM) |
| CN(Cc1ccc(-n2cnn(Cc3ccc(Br)cc3)c2=O)cc1)CC(O)(Cn1cncn1)c1ccc(F)cc1F (configuration not stated) | 0.002 (≈ 0.00328 µM) | 0.008 (≈ 0.0131 µM) | 0.0625 (≈ 0.102 µM) | 0.008 (≈ 0.0131 µM) | 8 (≈ 13.1 µM) | 0.0625 (≈ 0.102 µM) | 0.25 (≈ 0.41 µM) |  | 64 (≈ 105 µM) |
| CN(Cc1ccc(-n2cnn(CC(=O)c3ccc(F)cc3F)c2=O)cc1)CC(O)(Cn1cncn1)c1ccc(F)cc1F (configuration not stated) | 0.008 (≈ 0.0134 µM) | 0.016 (≈ 0.0269 µM) | 0.0625 (≈ 0.105 µM) | 8 (≈ 13.4 µM) | 64 (≈ 107 µM) | 2 (≈ 3.36 µM) | 4 (≈ 6.72 µM) |  | 64 (≈ 107 µM) |
| CN(Cc1ccc(N)cc1)CC(O)(Cn1cncn1)c1ccc(F)cc1F (configuration not stated) | 0.0625 (≈ 0.167 µM) | 2 (≈ 5.36 µM) | 0.5 (≈ 1.34 µM) | 8 (≈ 21.4 µM) | 64 (≈ 171 µM) | 4 (≈ 10.7 µM) | 16 (≈ 42.8 µM) |  | 64 (≈ 171 µM) |
| Cc1ccc(C(=O)Cn2ncn(-c3ccc(CN(C)CC(O)(Cn4cncn4)c4ccc(F)cc4F)cc3)c2=O)c(C)c1 (configuration not stated) | 0.002 (≈ 0.0034 µM) | 0.125 (≈ 0.213 µM) | 0.0625 (≈ 0.106 µM) | 0.5 (≈ 0.851 µM) | 8 (≈ 13.6 µM) | 0.0625 (≈ 0.106 µM) | 0.5 (≈ 0.851 µM) |  | 64 (≈ 109 µM) |
| CN(Cc1ccc(-n2cnn(CC(=O)c3ccc(F)cc3)c2=O)cc1)CC(O)(Cn1cncn1)c1ccc(F)cc1F (configuration not stated) | 0.004 (≈ 0.00693 µM) | 0.06 (≈ 0.104 µM) | 0.0625 (≈ 0.108 µM) | 1 (≈ 1.73 µM) | 64 (≈ 111 µM) | 0.0625 (≈ 0.108 µM) | 2 (≈ 3.46 µM) |  | 64 (≈ 111 µM) |
| CN(Cc1ccc(-n2cnn(Cc3ccc(Cl)cc3Cl)c2=O)cc1)CC(O)(Cn1cncn1)c1ccc(F)cc1F (configuration not stated) | 0.002 (≈ 0.00333 µM) | 0.008 (≈ 0.0133 µM) | 0.0625 (≈ 0.104 µM) | 0.008 (≈ 0.0133 µM) | 2 (≈ 3.33 µM) | 0.125 (≈ 0.208 µM) | 0.25 (≈ 0.416 µM) |  | 4 (≈ 6.66 µM) |
| Cc1cccc(Cn2ncn(-c3ccc(CN(C)CC(O)(Cn4cncn4)c4ccc(F)cc4F)cc3)c2=O)c1 (configuration not stated) | 0.004 (≈ 0.00733 µM) | 0.008 (≈ 0.0147 µM) | 0.125 (≈ 0.229 µM) | 1 (≈ 1.83 µM) | 16 (≈ 29.3 µM) | 1.25 (≈ 2.29 µM) | 0.5 (≈ 0.916 µM) |  | 64 (≈ 117 µM) |
| Cc1ccc(C(=O)Cn2ncn(-c3ccc(CN(C)CC(O)(Cn4cncn4)c4ccc(F)cc4F)cc3)c2=O)c(Cl)c1 (configuration not stated) | 0.125 (≈ 0.206 µM) | 0.5 (≈ 0.822 µM) | 0.0625 (≈ 0.103 µM) | 64 (≈ 105 µM) | 32 (≈ 52.6 µM) | 1 (≈ 1.64 µM) | 64 (≈ 105 µM) |  | 64 (≈ 105 µM) |
| CN(Cc1ccc(-n2cnn(Cc3ccc(OC(F)(F)F)cc3)c2=O)cc1)CC(O)(Cn1cncn1)c1ccc(F)cc1F (configuration not stated) | 0.002 (≈ 0.00325 µM) | 0.008 (≈ 0.013 µM) | 0.0312 (≈ 0.0508 µM) | 0.016 (≈ 0.026 µM) | 8 (≈ 13 µM) | 0.125 (≈ 0.203 µM) | 0.25 (≈ 0.406 µM) |  | 32 (≈ 52 µM) |
| CN(Cc1ccc(-n2cnn(Cc3cc(F)ccc3Br)c2=O)cc1)CC(O)(Cn1cncn1)c1ccc(F)cc1F (configuration not stated) | 0.002 (≈ 0.00318 µM) | 0.008 (≈ 0.0127 µM) | 0.25 (≈ 0.398 µM) | 0.5 (≈ 0.796 µM) | 32 (≈ 50.9 µM) | 0.25 (≈ 0.398 µM) | 2 (≈ 3.18 µM) |  | 16 (≈ 25.5 µM) |
| CC(C)c1ccc(C(=O)Cn2ncn(-c3ccc(CN(C)CC(O)(Cn4cncn4)c4ccc(F)cc4F)cc3)c2=O)cc1 (configuration not stated) | 0.004 (≈ 0.00665 µM) | 0.06 (≈ 0.0997 µM) | 0.125 (≈ 0.208 µM) | 1 (≈ 1.66 µM) | 32 (≈ 53.2 µM) | 0.125 (≈ 0.208 µM) | 1 (≈ 1.66 µM) |  | 64 (≈ 106 µM) |
| CN(Cc1ccc(-n2cnn(Cc3ccc(F)cc3Br)c2=O)cc1)CC(O)(Cn1cncn1)c1ccc(F)cc1F (configuration not stated) | 0.004 (≈ 0.00636 µM) | 0.008 (≈ 0.0127 µM) | 0.125 (≈ 0.199 µM) | 0.125 (≈ 0.199 µM) | 16 (≈ 25.5 µM) | 0.25 (≈ 0.398 µM) | 1 (≈ 1.59 µM) |  | 64 (≈ 102 µM) |
| CN(Cc1ccc(-n2cnn(Cc3ccc(Br)cc3F)c2=O)cc1)CC(O)(Cn1cncn1)c1ccc(F)cc1F (configuration not stated) | 0.002 (≈ 0.00318 µM) | 0.008 (≈ 0.0127 µM) | 0.0625 (≈ 0.0995 µM) | 0.125 (≈ 0.199 µM) | 4 (≈ 6.36 µM) | 0.125 (≈ 0.199 µM) | 0.5 (≈ 0.796 µM) |  | 64 (≈ 102 µM) |
